Assay results reported in patent US8759098B2, “Method for cloning pluripotent stem cells” (Boston Biomedical Research Institute, Inc., priority 2009, dated 2014).

Tests used:
Format in all cases: cell-based, mouse
[1] = system: SACK-responsive, Pdx1-positive Panstra-25 pancreatic stem cells; test: Gene-free iPSC reprogramming on STO feeders, colony phenotypes, Panstra-25; conditions: Panstra-25; hiFBS, 1 mM Xn
Method: (§1) Each tested SACK-derived cell strain was cultured on STO cell feeder monolayers in control medium with 10% DFBS, dialyzed fetal bovine serum (DFBS) or either of two commercial media for culture of murine embryonic stem cells (ESCs) and for the culture of reprogrammed cells such as iPSCs. Each medium condition was evaluated with or without supplementation with 1 mM xanthine (Xn). P/S denotes routine use of the antibiotics penicillin and streptomycin.
(§2) The method is an original pharmacological procedure for producing pluripotent stem cells. Cell strains derived in xanthine (Xn)-supplemented medium, by the method of suppression of asymmetric cell kinetics (SACK), were cultured in commercial media specified for the culture and/or production of pluripotent stem cells such as embryonic stem cells and iPSCs. Approximately 150,000 cells were plated on confluent STO cell feeders (i.e., mouse embryonic fibroblasts pre-treated with mitomycin C) in 10-cm culture dishes. In 2 weeks, iPSC-like cell colonies were detected.
(§3) To establish clonal strains, single colonies were picked, cultured in individual wells, and expanded for further study and cryo-preservation. A high fraction of the derived cell clones have morphological and biochemical properties indicative of iPSC cells.
(§4) Tissue-specific stem cells (e.g., Panstra-25 and Panstra-12 mouse pancreatic stem cell strains in the instant example) were cultured on mitomycin C-treated STO cell monolayers in commercial embryonic stem cell medium supplemented with the purine salvage base xanthine at 1 mM concentration (FIG. 4). Within 2-3 weeks of culture under otherwise standard conditions, cell colonies with embryonic stem cell-like morphology developed (FIG. 7B). These colonies were removed by mild trypsin treatment, transferred to individual cell culture wells prepared with STO cell feeders, and expanded in the respective embryonic stem cell culture medium supplemented with 1 mM xanthine (FIG. 5). The expanded cell clones expressed alkaline phosphatase (FIG. 8), a biochemical biomarker for the pluripotent phenotype of embryonic stem cells and iPSC cells. […] Xn supplementation increased the average production efficiency by as much as 3-fold (Table 6).

[2] = system: Panstra 11; test: Gene-free iPSC reprogramming, Panstra 11; conditions: Panstra 11, SACK agent Xn
Method: as §1, §2
(§5) Tissue-specific stem cells (e.g., Panstra-25 and Panstra-12 mouse pancreatic stem cell strains in the instant example) were cultured on mitomycin C-treated STO cell monolayers in commercial embryonic stem cell medium supplemented with the purine salvage base xanthine at 1 mM concentration (FIG. 4). […]

[3] = system: Panstra 56; test: Gene-free iPSC reprogramming, Panstra 56; conditions: Panstra 56, SACK agent Xn
Method: as §1, §2, §5

[4] = system: SACK-responsive, Pdx1-negative Panstra-12 pancreatic stem cells; test: Gene-free iPSC reprogramming on STO feeders, colony phenotypes, Panstra-12; conditions: for Estimated gene-free iPSC colony formation efficiency, ES, AP+ (iPSC state) / Estimated gene-free iPSC colony formation efficiency, ES, AP− / Estimated gene-free iPSC colony formation efficiency, Fl, AP+ / Estimated gene-free iPSC colony formation efficiency, Fl, AP− / Phenotype ES, AP+ (iPSC state) of individual cell clones following expansion, clones/total / Phenotype ES, AP+ (iPSC state) of individual cell clones following expansion, percent / Phenotype ES, AP− of individual cell clones following expansion, clones/total / Phenotype ES, AP− of individual cell clones following expansion, percent / Phenotype Fl, AP+ of individual cell clones following expansion, clones/total / Phenotype Fl, AP+ of individual cell clones following expansion, percent / Phenotype Fl, AP− of individual cell clones following expansion, clones/total / Phenotype Fl, AP− of individual cell clones following expansion, percent: Panstra-12, 1 mM Xn
Method: as §1, §2, §3, §4

[5] = system: Panstra 56; test: SACK responsiveness (cell kinetics, colony formation), Panstra 56; set-up: key: SACK-responsive (R); non-responsive (NR); conditions: Panstra 56, SACK agent Xn
From the text: The terms “SACK-R” and “Xn-responsive” are used interchangeably. Xn-responsive cells are not transformed cells.
In the example, the differentiated cells are adult mouse pancreatic islet cells and Xn is the chemical compound used to suppress asymmetric cell kinetics (SACK). […] These Xn-treated and Xn-responsive cells then proceeded to express alkaline phosphatase, a known enzyme marker that is highly expressed in undifferentiated cells such as primordial germ cells (FIG. 8), after culture in media that support the proliferation of mouse pluripotent stem cells. Under these conditions, these Xn-expanded and Xn-responsive cells also multiply to form colonies that take on a clonal mouse embryonic stem cell-like morphology in culture, resembling a compact clump of round tiny cells, the clump having a smooth and well defined edge (FIG. 7B).
The SACK-derived clonal pancreatic cell strains have properties of either beta-cell precursors (Pdx1+) or more primitive pancreatic cells (Pdx1−). In the colony formation analyses, three hundred (300) cells were plated in replicate (n=3) 30-mm diameter culture dishes. Twenty-four hours later, the culture medium was replaced with the medium supplemented with SACK agents as indicated. Ten days later, plates were stained with crystal violet and colonies counted. Xs, xanthosine; Xn, xanthine; Hx hypoxanthine.

## O=c1[nH]c(=O)c2[nH]cnc2[nH]1 [Xn, xanthine]
[1]
  Phenotype ES, AP− of individual cell clones following expansion, percent: 53%
  Phenotype Fl, AP+ of individual cell clones following expansion, clones/total: 1/19
  Phenotype Fl, AP+ of individual cell clones following expansion, percent: 5%
  Phenotype Fl, AP− of individual cell clones following expansion, clones/total: 5/19
  Phenotype Fl, AP− of individual cell clones following expansion, percent: 26%
[2]
  iPSC (gene-free iPSC reprogramming): No
[3]
  iPSC (gene-free iPSC reprogramming): No
[4]; Panstra 12, SACK agent Xn
  iPSC (gene-free iPSC reprogramming): Yes
[4]; DFBS
  Estimated gene-free iPSC colony formation efficiency, ES, AP+ (iPSC state): 0.000%
  Estimated gene-free iPSC colony formation efficiency, ES, AP−: 0.047%
  Estimated gene-free iPSC colony formation efficiency, Fl, AP+: 0.027%
  Estimated gene-free iPSC colony formation efficiency, Fl, AP−: 0.080%
  Phenotype ES, AP+ (iPSC state) of individual cell clones following expansion, clones/total: 0/23
  Phenotype ES, AP+ (iPSC state) of individual cell clones following expansion, percent: 0%
  Phenotype ES, AP− of individual cell clones following expansion, clones/total: 7/23
  Phenotype ES, AP− of individual cell clones following expansion, percent: 31%
  Phenotype Fl, AP+ of individual cell clones following expansion, clones/total: 4/23
  Phenotype Fl, AP+ of individual cell clones following expansion, percent: 17%
  Phenotype Fl, AP− of individual cell clones following expansion, clones/total: 12/23
  Phenotype Fl, AP− of individual cell clones following expansion, percent: 52%
[4]; KOSR
  Estimated gene-free iPSC colony formation efficiency, ES, AP+ (iPSC state): 0.067%
  Estimated gene-free iPSC colony formation efficiency, ES, AP−: 0.033%
  Estimated gene-free iPSC colony formation efficiency, Fl, AP+: 0.007%
  Estimated gene-free iPSC colony formation efficiency, Fl, AP−: 0.007%
  Phenotype ES, AP+ (iPSC state) of individual cell clones following expansion, clones/total: 10/17
  Phenotype ES, AP+ (iPSC state) of individual cell clones following expansion, percent: 59%
  Phenotype ES, AP− of individual cell clones following expansion, clones/total: 5/17
  Phenotype ES, AP− of individual cell clones following expansion, percent: 29%
  Phenotype Fl, AP+ of individual cell clones following expansion, clones/total: 1/17
  Phenotype Fl, AP+ of individual cell clones following expansion, percent: 6%
  Phenotype Fl, AP− of individual cell clones following expansion, clones/total: 1/17
  Phenotype Fl, AP− of individual cell clones following expansion, percent: 6%
[4]; hiFBS
  Estimated gene-free iPSC colony formation efficiency, ES, AP+ (iPSC state): 0.020%
  Estimated gene-free iPSC colony formation efficiency, ES, AP−: 0.033%
  Estimated gene-free iPSC colony formation efficiency, Fl, AP+: 0.000%
  Estimated gene-free iPSC colony formation efficiency, Fl, AP−: 0.073%
  Phenotype ES, AP+ (iPSC state) of individual cell clones following expansion, clones/total: 3/19
  Phenotype ES, AP+ (iPSC state) of individual cell clones following expansion, percent: 16%
  Phenotype ES, AP− of individual cell clones following expansion, clones/total: 5/19
  Phenotype ES, AP− of individual cell clones following expansion, percent: 26%
  Phenotype Fl, AP+ of individual cell clones following expansion, clones/total: 0/19
  Phenotype Fl, AP+ of individual cell clones following expansion, percent: 0%
  Phenotype Fl, AP− of individual cell clones following expansion, clones/total: 11/19
  Phenotype Fl, AP− of individual cell clones following expansion, percent: 58%
[4]; Pdx1− strain supplemented with Xn, p=0.024
  higher rate of iPSC-like colony production, average: 3 fold
[4]; Xn in the iPSC media at 1 mM, strain not given
  increase of the conversion rate to iPSC: approximately 3 fold
[4]; Xn supplementation (Table 6)
  increase of the average production efficiency of iPSC-like cell clones: ≤ 3 fold
[5]
  SACK Type: NR
